According to US4258184A, “Cephalosporin derivatives” (Meiji Seika Kaisha Ltd., priority 1976, dated 1981):
Converted amounts (≈) assume the structure as drawn. Where two headings read alike, the source gives them in different places.

Key:
[1] = test system: Vibrio parahaemolyticus K-5; assay: Minimum prohibiting/inhibition concentration by agar plate dilution method; format: cell-based
Text: (§1) Minimum prohibiting concentration (γ/ml)
(§2) by means of agar plate dilution method
(§3) Minimum inhibition concentration (γ/ml) by means
(§4) of agar plate dilution method

[2] = test system: Salmonella typhi O-901-W; assay: as above; format: cell-based; conditions: Salmonella enterica
Text: as §1, §2, §3, §4

[3] = test system: Staphylococcus aureus Smith S-424; assay: as above; format: cell-based
Text: as §1, §2, §3, §4

[4] = test system: Proteus morganii Kono; assay: as above; format: cell-based; conditions: Morganella morganii
Text: as §1, §2, §3, §4

[5] = test system: Salmonella enteriditis No. 11; assay: as above; format: cell-based
Text: as §1, §2, §3, §4

[6] = test system: Staphylococcus aureus 209p JC-1; assay: Minimum prohibiting concentration by agar plate dilution method; format: cell-based; conditions: read-out: Minimum prohibiting concentration
Text: as §1, §2

[7] = test system: Pseudomonas aeruginosa IAM 1007; assay: as above; format: cell-based
Text: as §1, §2

[8] = test system: Pseudomonas species C73-83; assay: as above; format: cell-based
Text: as §1, §2

[9] = test system: Staphylococcus aureus No. 26; assay: as above; format: cell-based
Text: as §1, §2

[10] = test system: Escherichia coli K-12 IAM 1264; assay: as above; format: cell-based; conditions: IAM1264, Table 1
Text: as §1, §2

[11] = test system: Serratia species No. 2; assay: as above; format: cell-based
Text: as §1, §2

[12] = test system: Proteus species C73-34; assay: as above; format: cell-based; conditions: read-out: Minimum prohibiting concentration
Text: as §1, §2

[13] = test system: Pseudomonas species C73-2; assay: as above; format: cell-based; conditions: C732, Table 1
Text: as §1, §2

[14] = test system: Escherichia coli NIHJ JC-2; assay: as above; format: cell-based
Text: as §1, §2

[15] = test system: Escherichia coli C73-1; assay: as above; format: cell-based
Text: as §1, §2

[16] = test system: Bacillus subtilis ATCC 6633; assay: as above; format: cell-based
Text: as §1, §2

[17] = test system: Enterobacter species C73-17; assay: as above; format: cell-based
Text: as §1, §2

[18] = test system: Proteus species C73-25; assay: as above; format: cell-based; conditions: read-out: Minimum prohibiting concentration
Text: as §1, §2

[19] = test system: Serratia species MS-2; assay: as above; format: cell-based
Text: as §1, §2

[20] = test system: Vibrio parahaemolyticus K-7; assay: as above; format: cell-based
Text: as §1, §2

[21] = test system: Klebsiella pneumoniae; assay: Minimum inhibition concentration by agar plate dilution method; format: cell-based; conditions: Table 2
Text: as §3, §4

[22] = test system: Staphylococcus aureus Smith No. 26; assay: as above; format: cell-based; conditions: read-out: Minimum inhibition concentration
Text: as §3, §4

[23] = Toxicity, peritoneal administration to mice; format: in vivo; conditions: 6 mice, administered peritoneally, dosage amount of 200 mg/l kg
Text: The toxicity of the compounds according to this invention is excellently low. […] As is clear from above, the compounds according to this invention are not only low in toxicity and excellent in anti-biotic activity but also have a prolonged action after administration. Therefore, they show excellent infection cure effect and infection-defense effect in before-or after-administration and in less dosage in comparison with known cephalosporin derivatives, for example, cephalothin, cefazolin or cephaloridine.

[24] = read-out: Minimum prohibiting concentration
[25] = Salmonella, NO.11, read-out: Minimum prohibiting concentration
[26] = Staphylococcus aureus, NO.26, read-out: Minimum prohibiting concentration
[27] = Escherichia coli, NIHJJC2, read-out: Minimum prohibiting concentration
[28] = Serratia, MS2, read-out: Minimum prohibiting concentration
[29] = K5, Table 2, agar plate dilution method, Vibrio parahaemolyticus K-5, read-out: Minimum inhibition concentration
[30] = read-out: Minimum inhibition concentration
[31] = Table 2, agar plate dilution method, Proteus morganii Kono, read-out: Minimum inhibition concentration
[32] = Table 2, agar plate dilution method, Staphylococcus aureus Smith No. 26
[33] = Table 2, agar plate dilution method, Salmonella enteritidis N0. 11, read-out: Minimum inhibition concentration
[34] = K5, Table 1, agar plate dilution method, Vibrio parahaemolyticus K-5, read-out: Minimum prohibiting concentration
[35] = SMITHS424, Table 1, agar plate dilution method, Staphylococcus aureus Smith S-424, read-out: Minimum prohibiting concentration
[36] = Table 1, agar plate dilution method, Salmonella enteriditis No. 11, read-out: Minimum prohibiting concentration
[37] = Table 1, agar plate dilution method, Staphylococcus aureus 209p JC-1
[38] = IAM1007, Table 1, agar plate dilution method, Pseudomonas aeruginosa IAM 1007, read-out: Minimum prohibiting concentration
[39] = C7383, Table 1, agar plate dilution method, Pseudomonas species C73-83, read-out: Minimum prohibiting concentration
[40] = Table 1, agar plate dilution method, Staphylococcus aureus No. 26, read-out: Minimum prohibiting concentration
[41] = Table 1, agar plate dilution method, Serratia species No. 2, read-out: Minimum prohibiting concentration
[42] = Table 1, agar plate dilution method, Proteus species C73-34
[43] = C731, Table 1, agar plate dilution method, Escherichia coli C73-1, read-out: Minimum prohibiting concentration
[44] = ATCC6633, Table 1, agar plate dilution method, Bacillus subtilis ATCC 6633, read-out: Minimum prohibiting concentration
[45] = C7317, Table 1, agar plate dilution method, Enterobacter species C73-17, read-out: Minimum prohibiting concentration
[46] = Table 1, agar plate dilution method, Proteus species C73-25
[47] = K7, Table 1, agar plate dilution method, Vibrio parahaemolyticus K-7, read-out: Minimum prohibiting concentration
[48] = Table 1, agar plate dilution method, Proteus morganii Kono, read-out: Minimum prohibiting concentration
[49] = NIHJJC2, Table 1, agar plate dilution method, Escherichia coli NIHJ JC-2, read-out: Minimum prohibiting concentration
[50] = MS2, Table 1, agar plate dilution method, Serratia species MS-2, read-out: Minimum prohibiting concentration

| Structure (SMILES) | MIC [2, 24] [mg/L] | MIC [4, 24] [mg/L] | MIC [5, 25] [mg/L] | MIC [9, 26] [mg/L] | MIC [10] [mg/L] | MIC [13] [mg/L] | MIC [21] [mg/L] | MIC [1, 29] [mg/L] | MIC [2, 30] [mg/L] | MIC [1, 34] [mg/L] | MIC [3, 35] [mg/L] | MIC [6, 37] [mg/L] | MIC [7, 38] [mg/L] | MIC [8, 39] [mg/L] | MIC [11, 41] [mg/L] | MIC [12, 42] [mg/L] | MIC [15, 43] [mg/L] | MIC [16, 44] [mg/L] | MIC [17, 45] [mg/L] | MIC [20, 47] [mg/L] | also measured |
| --- | --- | --- | --- | --- | --- | --- | --- | --- | --- | --- | --- | --- | --- | --- | --- | --- | --- | --- | --- | --- | --- |
| Cc1ccc(-c2ccc(C(=O)N[C@@H](C(=O)NC3C(=O)N4C(C(=O)[O-])=C(CSc5nnc(C(N)=O)s5)CS[C@H]34)c3ccc(O)cc3)c(O)n2)cc1.[Na+] (stereo partly drawn) [Example 8, sodium 7-{D(-)-α-[2-hydroxy-6-(p-tolyl)pyridine-3-carbonylamino]-p-hydroxyphenylacetamido}-3-(5-carbamoyl-1,3,4-thiadiazol-2-ylthiomethyl)-3-cephem-4-carboxylate] | 1.56 | 25 | 0.78 | 3.13 | 1.56 | 50 |  |  |  |  |  |  |  |  |  |  |  |  |  |  | MIC ([1]; Vibrio parahaemolyticus, K5, read-out: Minimum prohibiting concentration): 3.13 mg/L; MIC ([3]; Staphylococcus aureus, SMITHS424, read-out: Minimum prohibiting concentration): 0.39 mg/L; MIC ([6]; Staphylococcus aureus, 209P): 0.2 mg/L; MIC ([7]; Pseudomonas aeruginosa, IAM1007, read-out: Minimum prohibiting concentration): 100 mg/L; MIC ([8]; Pseudomonas, C7383, read-out: Minimum prohibiting concentration): 100 mg/L; MIC ([11]; Serratia, NO.2, read-out: Minimum prohibiting concentration): 50 mg/L; MIC [12]: 12.5 mg/L; MIC [14, 27]: 12.5 mg/L; MIC ([15]; Escherichia coli, C731, read-out: Minimum prohibiting concentration): 6.25 mg/L; MIC ([16]; Bacillus subtilis, ATCC6633, read-out: Minimum prohibiting concentration): 0.78 mg/L; MIC ([17]; Enterobacter, C7317, read-out: Minimum prohibiting concentration): 12.5 mg/L; MIC [18]: 50 mg/L; MIC [19, 28]: 50 mg/L; MIC ([20]; Vibrio parahaemolyticus, K7, read-out: Minimum prohibiting concentration): 3.13 mg/L |
| Cc1ccc(-c2ccc(C(=O)N[C@@H](C(=O)NC3C(=O)N4C(C(=O)O)=C(CSc5nnnn5C)CS[C@H]34)c3ccc(O)cc3)c(O)n2)cc1 (stereo partly drawn) [Example 56, 7-{D-(-)-α-[2-hydroxy-6-(p-tolyl)pyridine-3-carbonylamino]-p-hydroxyphenylacetamido}-3-(1-methyl-1,2,3,4-tetrazole-5-ylthiomethyl)-3-cephem-4-carboxylic acid] |  |  |  |  |  |  | 25 (≈ 36.3 µM) | 25 (≈ 36.3 µM) | 1.56 (≈ 2.26 µM) |  |  |  |  |  |  |  |  |  |  |  | MIC ([22]; Staphylococcus aureus): 6.25 mg/L (≈ 9.07 µM); MIC ([3]; Staphylococcus aureus, SMITHS424, read-out: Minimum inhibition concentration): 1.56 mg/L (≈ 2.26 µM); MIC [4, 31]: 12.5 mg/L (≈ 18.1 µM); MIC [5, 30]: 1.56 mg/L (≈ 2.26 µM) |
| Cc1ccc(-c2ccc(C(=O)N[C@@H](C(=O)NC3C(=O)N4C(C(=O)O)=C(CSc5nnnn5C)CS[C@H]34)c3ccccc3)c(O)n2)cc1 (stereo partly drawn) [Example 57, 7-{D-(-)-α-[2-hydroxy-6-(p-tolyl)pyridine-3-carbonylamino]-phenylacetamido}-3-(1-methyl-1,2,3,4-tetrazole-5-ylthiomethyl)-3-cephem-4-carboxylicacid] |  |  |  |  |  |  | 50 (≈ 74.3 µM) | 25 (≈ 37.2 µM) | 6.25 (≈ 9.29 µM) |  |  |  |  |  |  |  |  |  |  |  | MIC [22, 32]: 50 mg/L (≈ 74.3 µM); MIC ([3]; SMITHS424, Table 2, agar plate dilution method, Staphylococcus aureus Smith S-424, read-out: Minimum inhibition concentration): 12.5 mg/L (≈ 18.6 µM); MIC [4, 31]: 100 mg/L (≈ 149 µM); MIC [5, 33]: 3.13 mg/L (≈ 4.65 µM) |
| CC1(C)S[C@@H]2[C@H](NC(=O)C(C(=O)O)c3ccccc3)C(=O)N2[C@H]1C(=O)O (some centres unmarked) [Carbenicillin disodium, reference compound] | 12.5 | 12.5 |  |  | 12.5 | > 100 | 25 | > 100 | 12.5 | > 100 | 0.39 | 0.39 | > 100 | > 100 | 50 | 50 | 25 | 0.39 | > 100 | 50 | MIC [22, 32]: 25 mg/L; MIC [4, 30]: 12.5 mg/L; MIC [5, 36]: 50 mg/L; MIC [5, 33]: 50 mg/L; MIC [9, 40]: 25 mg/L; MIC [14, 27]: 12.5 mg/L; MIC [18, 46]: 50 mg/L; MIC [19, 28]: 12.5 mg/L |
| Cc1nnc(SCC2=C(C(=O)O)N3C(=O)[C@@H](NC(=O)Cn4cnnn4)[C@H]3SC2)s1 [Cefazolin Na, reference compound] | 3.13 (≈ 6.89 µM) |  | 3.13 (≈ 6.89 µM) | 3.13 (≈ 6.89 µM) | 3.13 (≈ 6.89 µM) | > 100 |  |  |  | 6.25 (≈ 13.8 µM) | 0.78 (≈ 1.72 µM) | 0.1 (≈ 0.22 µM) | > 100 | > 100 | > 100 | 12.5 (≈ 27.5 µM) | 6.25 (≈ 13.8 µM) | 0.2 (≈ 0.44 µM) | 50 (≈ 110 µM) | 12.5 (≈ 27.5 µM) | MIC [4, 48]: > 100 mg/L; MIC [14, 49]: 6.25 mg/L (≈ 13.8 µM); MIC [18]: 3.13 mg/L (≈ 6.89 µM); MIC [19, 50]: > 100 mg/L |
| Cc1ccc(-c2ccc(C(=O)N[C@@H](C(=O)NC3C(=O)N4C(C(=O)O)=C(CSc5nnc(C(N)=O)s5)CS[C@H]34)c3ccccc3)c(O)n2)cc1 (stereo partly drawn) [Example 2, 7-{D(-)-α-[2-hydroxy-6-(p-tolyl)pyridine-3-carbonylamino]phenylacetamido}-3-(5-carbamoyl-1,3,4-thiadiazol-2-ylthiomethyl)-3-cephem-4-carboxylic acid] | 3.13 (≈ 4.36 µM) |  |  |  | 6.25 (≈ 8.71 µM) | 100 (≈ 139 µM) |  |  |  | 25 (≈ 34.8 µM) | 0.78 (≈ 1.09 µM) | 0.78 (≈ 1.09 µM) | 100 (≈ 139 µM) | 100 (≈ 139 µM) | 100 (≈ 139 µM) | 12.5 (≈ 17.4 µM) | 25 (≈ 34.8 µM) | 1.56 (≈ 2.17 µM) | 50 (≈ 69.7 µM) | 12.5 (≈ 17.4 µM) | MIC [4, 48]: 100 mg/L (≈ 139 µM); MIC [5, 36]: 0.39 mg/L (≈ 0.543 µM); mortality [23]: any mouse did not die; MIC [9, 40]: 6.25 mg/L (≈ 8.71 µM); MIC [14, 49]: 25 mg/L (≈ 34.8 µM); MIC [18, 46]: 25 mg/L (≈ 34.8 µM); MIC [19, 50]: 50 mg/L (≈ 69.7 µM) |
